In the assay the target is T1, BTK (Homo sapiens, UniProt Q06187).
T1 construct: endogenous in cells; host or cells: TMD8 cells
T1 sequence (Q06187 whole entry): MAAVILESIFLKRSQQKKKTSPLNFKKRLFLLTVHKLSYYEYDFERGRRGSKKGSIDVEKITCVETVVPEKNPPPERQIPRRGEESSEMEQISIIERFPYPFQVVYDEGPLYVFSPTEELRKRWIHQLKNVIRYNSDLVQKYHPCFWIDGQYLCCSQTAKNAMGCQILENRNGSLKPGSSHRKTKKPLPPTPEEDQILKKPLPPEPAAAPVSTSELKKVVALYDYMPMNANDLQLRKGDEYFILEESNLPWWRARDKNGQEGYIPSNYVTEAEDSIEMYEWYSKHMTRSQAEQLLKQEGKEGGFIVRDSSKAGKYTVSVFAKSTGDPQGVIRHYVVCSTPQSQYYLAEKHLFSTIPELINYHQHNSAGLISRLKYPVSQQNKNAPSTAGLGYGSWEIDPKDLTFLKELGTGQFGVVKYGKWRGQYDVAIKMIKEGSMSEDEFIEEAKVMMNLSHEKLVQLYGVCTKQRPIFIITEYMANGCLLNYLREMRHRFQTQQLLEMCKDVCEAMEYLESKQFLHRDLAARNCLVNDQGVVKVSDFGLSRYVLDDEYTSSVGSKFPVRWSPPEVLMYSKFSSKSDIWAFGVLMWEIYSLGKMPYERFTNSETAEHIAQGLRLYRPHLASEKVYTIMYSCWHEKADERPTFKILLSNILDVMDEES
The assay can be described thus: Cellular BTK HTRF assay (BTK degradation) in TMD8 cells. Format: cell-based. The note with it: four hours incubation, Total-BTK HTRF relative to DMSO-treated cells. The procedure, abridged: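 TMD8 cells were treated with compounds (final DMSO <0.200) for four hours at 37° C, 5% CO2, then lysed for 30 minutes. Total BTK was measured by two-antibody HTRF, taking the 665/620 nm ratio with background subtracted and expressed relative to DMSO-treated cells. DC50 came from four-parameter nonlinear regression.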
`CN1CCN([C@@H]2CCCN(c3cnc(C(N)=O)c(Nc4ccc(C5CCN(CC6CN(c7ccc8c(=O)n(C9CCC(=O)NC9=O)ccc8c7)C6)CC5)cc4)n3)C2)C1=O` (stereo partly drawn) [Compound 138] yielded a half-maximal degradation concentration (DC50) below 5 nM. In turn, `NC(=O)c1ncc(N2CCC[C@H](N3CCCC3=O)C2)nc1Nc1ccc(C2CN(CC3CCN(c4ccc5c(=O)n(C6CCC(=O)NC6=O)ccc5c4)CC3)C2)cc1` (stereo partly drawn) [Compound 139] yielded a DC50 below 5 nM. For `NC(=O)c1ncc(N2CCC[C@H](N3CCCC3=O)C2)nc1Nc1ccc(C2CN(C[C@@H]3CCN(c4ccc5c(c4)C(=O)N(C4CCC(=O)NC4=O)C5=O)C3)C2)cc1` (stereo partly drawn) [Compound 140], the DC50 is below 5 nM. For the compound `Cn1c(N2CCC(CN3CC(c4ccc(Nc5nc(N6CCC[C@H](N7CCCC7=O)C6)cnc5C(N)=O)cc4)C3)CC2)nn(C2CCC(=O)NC2=O)c1=O` (stereo partly drawn) [Compound 141], the DC50 was below 5 nM. The compound `CC1CCN([C@H]2CCCN(c3cnc(C(N)=O)c(Nc4ccc(C5CCN(C[C@@H]6CCN(c7ccc(-c8nn(C9CCC(=O)NC9=O)c(=O)n8C)cc7)C6)CC5)cc4)n3)C2)C1=O` (stereo partly drawn) [Compound 142] showed a DC50 below 5 nM. Compound `Cn1c(-c2ccc(N3CCC(CN4CCC(c5ccc(Nc6nc(N7CCC[C@H](N8CCCC8=O)C7)cnc6C(N)=O)cc5)CC4)CC3)cc2)nn(C2CCC(=O)NC2=O)c1=O` (stereo partly drawn) [Compound 143] registered a DC50 below 5 nM. On to `NC(=O)c1ncc(N2CCC[C@H](N3CCCC3=O)C2)nc1Nc1ccc(C2CCN(CC3CCN(c4ccc5c(=O)n(C6CCC(=O)NC6=O)ccc5c4)CC3)CC2)cc1` (stereo partly drawn) [Compound 144], for which the DC50 is below 5 nM. Consider `Cn1cc(Nc2nc(N3CCC[C@@H](N4CCC5(CN(CC6CCN(c7ccc8c(=O)n(C9CCC(=O)NC9=O)ccc8c7)CC6)C5)C4=O)C3)cnc2C(N)=O)cn1` (stereo partly drawn) [Compound 145], for which the DC50 was below 5 nM.

For the compound `NC(=O)c1ncc(N2CCCC(N3CCCC3=O)C2)nc1Nc1ccc(C2CN(C[C@@H]3CCN(c4ccc5c(c4)C(=O)N(C4CCC(=O)NC4=O)C5=O)C3)C2)cc1` (stereo partly drawn) [Compound 146], the DC50 is below 5 nM. Compound `Cn1cc(Nc2nc(N3CCC[C@@H](N4CC5(CN(CC6CCN(c7ccc8c(=O)n(C9CCC(=O)NC9=O)ccc8c7)CC6)C5)OC4=O)C3)cnc2C(N)=O)cn1` (stereo partly drawn) [Compound 147] displayed a DC50 below 5 nM. `NC(=O)c1ncc(-c2nccs2)nc1Nc1ccc(C2CCN(C[C@@H]3CCN(c4ccc5c(c4)C(=O)N(C4CCC(=O)NC4=O)C5=O)C3)CC2)cc1` (stereo partly drawn) [Compound 148]: the DC50 was below 5 nM.

On to `NC(=O)c1ncc(N2CCCCC2)nc1Nc1ccc(C2CCN(C[C@@H]3CCN(c4ccc5c(c4)C(=O)N(C4CCC(=O)NC4=O)C5=O)C3)CC2)cc1` (stereo partly drawn) [Compound 149], for which the DC50 was below 5 nM. Next, `NC(=O)c1ncc(-c2nccs2)nc1Nc1ccc(N2CCC3(CC2)CCN(c2ccc4c(c2)C(=O)N(C2CCC(=O)NC2=O)C4=O)CC3)cc1` (stereo not drawn) [Compound 151]: above 15 nM; `CN1CCN(C2CCCN(c3cnc(C(N)=O)c(Nc4ccc(C5CCN(CC6CCN(c7ccc8c(c7)CN(C7CCC(=O)NC7=O)C8=O)C6)CC5)cc4)n3)C2)C1=O` (stereo not drawn) [Compound 152]: below 5 nM.

On to `NC(=O)c1ncc(N2CCC[C@@H](N3CCOC3=O)C2)nc1Nc1ccc(C2CCN(CC3CCN(c4ccc5c(=O)n(C6CCC(=O)NC6=O)ccc5c4)CC3)CC2)cc1` (stereo partly drawn) [Compound 153], for which the DC50 was below 5 nM. On to `CN1CCN([C@@H]2CCCN(c3cnc(C(N)=O)c(Nc4ccc(C5CCN(C[C@H]6CC[C@H](Nc7cccc8c7C(=O)N(C7CCC(=O)NC7=O)C8=O)CC6)CC5)cc4)n3)C2)C1=O` (stereo partly drawn) [Compound 154], for which the DC50 was below 5 nM. With `CN1CCN([C@@H]2CCCN(c3cnc(C(N)=O)c(Nc4ccc(C5CCN(C(=O)COc6cccc7c6C(=O)N(C6CCC(=O)NC6=O)C7=O)CC5)cc4)n3)C2)C1=O` (stereo partly drawn) [Compound 158], the DC50 lay in the range of 5 to 15 nM.

The compound `NC(=O)c1ncc(N2CCC(C(=O)O)CC2)nc1Nc1ccc(C2CCN(C[C@H]3CCN(c4ccc5c(c4)C(=O)N(C4CCC(=O)NC4=O)C5=O)C3)CC2)cc1` (stereo partly drawn) [Compound 159] displayed a 50% degradation concentration (DC50) of 5 to 15 nM. For `NC(=O)c1ncc(N2CCC(CO)CC2)nc1Nc1ccc(C2CCN(C[C@@H]3CCN(c4ccc5c(c4)C(=O)N(C4CCC(=O)NC4=O)C5=O)C3)CC2)cc1` (stereo partly drawn) [Compound 160], the DC50 was below 5 nM. For `NC(=O)c1ncc(N2CCOCC2)nc1Nc1ccc(C2CCN(C[C@H]3CCN(c4ccc5c(c4)C(=O)N(C4CCC(=O)NC4=O)C5=O)C3)CC2)cc1` (stereo partly drawn) [Compound 161], the half-maximal degradation concentration (DC50) fell in the range of 5 to 15 nM.

`NC(=O)c1ncc(N2CCC2)nc1Nc1ccc(C2CCN(C[C@H]3CCN(c4ccc5c(c4)C(=O)N(C4CCC(=O)NC4=O)C5=O)C3)CC2)cc1` (stereo partly drawn) [Compound 162] registered a DC50 below 5 nM. Compound `NC(=O)c1ncc(N2CCCCC2)nc1Nc1ccc(C2CCN(CC3CCN(c4ccc5ccn(C6CCC(=O)NC6=O)c(=O)c5c4)CC3)CC2)cc1` (stereo not drawn) [Compound 163] returned a 50% degradation concentration (DC50) below 5 nM. As to `NC(=O)c1ncc(N2CCCCC2)nc1Nc1ccc(C2CCN(CC3CCN(c4ccc(OC5CCC(=O)NC5=O)cn4)CC3)CC2)cc1` (stereo not drawn) [Compound 164], the DC50 lay in the range of 5 to 15 nM.

Turning to `CN1CCN([C@@H]2CCCN(c3cnc(C(N)=O)c(Nc4ccc(C5CCN(CC6CCN(c7ccc(OC8CCC(=O)NC8=O)cn7)CC6)CC5)cc4)n3)C2)C1=O` (stereo partly drawn) [Compound 165], the half-maximal degradation concentration (DC50) lay within 5 to 15 nM. For the compound `NC(=O)c1ncc(N2CCCCC2)nc1Nc1ccc(C2CCN(CC3CCN(c4ccc(NC5CCC(=O)NC5=O)cn4)CC3)CC2)cc1` (stereo not drawn) [Compound 167], the DC50 was above 15 nM. In turn, `NC(=O)c1ncc(N2CCC[C@@H](N3CCCC3=O)C2)nc1Nc1ccc(N2CC(C3CCN(c4ccc5c(c4)C(=O)N(C4CCC(=O)NC4=O)C5=O)CC3)C2)nc1` (stereo partly drawn) [Compound 168] yielded a DC50 below 5 nM. Turning to `NC(=O)c1ncc(N2CCC[C@@H](N3CCCC3=O)C2)nc1Nc1ccc(N2CC(C3CCN(c4ccc5c(c4)C(=O)N(C4CCC(=O)NC4=O)C5=O)CC3)C2)cc1` (stereo partly drawn) [Compound 169], the DC50 is below 5 nM. In turn, `NC(=O)c1ncc(N2CCC[C@@H](CO)C2)nc1Nc1ccc(C2CCN(CC3CCN(c4ccc(NC5CCC(=O)NC5=O)cn4)CC3)CC2)cc1` (stereo partly drawn) [Compound 170] yielded a DC50 below 5 nM. In turn, `NC(=O)c1ncc(N2CCC[C@@H](CO)C2)nc1Nc1ccc(C2CCN(CC3CCN(c4ccc(OC5CCC(=O)NC5=O)cn4)CC3)CC2)cc1` (stereo partly drawn) [Compound 171] yielded a DC50 below 5 nM. Next, `NC(=O)c1ncc(N2CCC[C@@H](CO)C2)nc1Nc1ccc(C2CCN(CC3CCN(c4ccc5c(=O)n(C6CCC(=O)NC6=O)ccc5c4)CC3)CC2)cc1` (stereo partly drawn) [Compound 172]: below 5 nM; `NC(=O)c1ncc(N2CCC[C@@H](CO)C2)nc1Nc1ccc(C2CCN(CC3CCN(c4ccc(C(=O)NC5CCC(=O)NC5=O)nc4)CC3)CC2)cc1` (stereo partly drawn) [Compound 173]: below 5 nM; `NC(=O)c1ncc(N2CCC[C@@H](CO)C2)nc1Nc1ccc(C2CCN(C[C@H]3CCN(c4ccc5c(c4)C(=O)N(C4CCC(=O)NC4=O)C5=O)C3)CC2)cc1` (stereo partly drawn) [Compound 174]: below 5 nM. Under `NC(=O)c1ncc(N2CCC(F)(F)C(CO)C2)nc1Nc1ccc(C2CCN(C[C@H]3CCN(c4ccc5c(c4)C(=O)N(C4CCC(=O)NC4=O)C5=O)C3)CC2)cc1` (stereo partly drawn) [Compound 175] stands below 5 nM; under `NC(=O)c1ncc(N2CCC3(COC3)C2)nc1Nc1ccc(C2CCN(C[C@H]3CCN(c4ccc5c(c4)C(=O)N(C4CCC(=O)NC4=O)C5=O)C3)CC2)cc1` (stereo partly drawn) [Compound 176], below 5 nM; under `NC(=O)c1ncc(N2CCCC3(COC3)C2)nc1Nc1ccc(C2CCN(CC3CCN(c4ccc5c(=O)n(C6CCC(=O)NC6=O)ccc5c4)CC3)CC2)cc1` (stereo not drawn) [Compound 177], below 5 nM.

Take `Cn1c(-c2ccc(N3CCC(CN4CCC(c5ccc(Nc6nc(N7CCCC8(COC8)C7)cnc6C(N)=O)cc5)CC4)CC3)cc2)nn(C2CCC(=O)NC2=O)c1=O` (stereo not drawn) [Compound 178]: the DC50 is 5 to 15 nM. In turn, `Cn1c(=O)n(C2CCC(=O)NC2=O)c2ccc(N3CCC(CN4CCC(c5ccc(Nc6nc(N7CCCCC7)cnc6C(N)=O)cc5)CC4)CC3)cc21` (stereo not drawn) [Compound 179] registered a DC50 below 5 nM. Consider `CN1CCN([C@@H]2CCCN(c3cnc(C(N)=O)c(Nc4ccc(C5CCN(CC6CCN(c7ccc(N(C)C8CCC(=O)NC8=O)cn7)CC6)CC5)cc4)n3)C2)C1=O` (stereo partly drawn) [Compound 180], for which the DC50 is above 15 nM.

In the case of `CN(c1ccc(N2CCC(CN3CCC(c4ccc(Nc5nc(N6CCCCC6)cnc5C(N)=O)cc4)CC3)CC2)nc1)C1CCC(=O)NC1=O` (stereo not drawn) [Compound 181], the DC50 was 5 to 15 nM. As to `NC(=O)c1ncc(N2CCCCC2)nc1Nc1ccc(C2CCN(CC3CCN(c4ccc(C(=O)NC5CCC(=O)NC5=O)nc4)CC3)CC2)cc1` (stereo not drawn) [Compound 182], the DC50 was below 5 nM. `CNC(C)C(=O)N[C@H](C(=O)N1C[C@@H](NC(=O)CCOCCOCCOCCOCCC(=O)N2CCC(c3ccc(Nc4nc(N5CCC[C@@H](N6CCN(C)C6=O)C5)cnc4C(N)=O)cc3)CC2)C[C@H]1C(=O)N[C@@H]1CCCc2ccccc21)C1CCCCC1` (stereo partly drawn) [Compound 183] returned a DC50 above 15 nM. Compound `CN1CCN([C@@H]2CCCN(c3cnc(C(N)=O)c(Nc4ccc(C5CCN(C(=O)CNc6cccc7c6C(=O)N(C6CCC(=O)NC6=O)C7=O)CC5)cc4)n3)C2)C1=O` (stereo partly drawn) [Compound 184] returned a DC50 of 5 to 15 nM. `NC(=O)c1ncc(N2CCCCC2)nc1Nc1ccc(C2CCN(CC3CCN(c4ccc(CC5CCC(=O)NC5=O)cn4)CC3)CC2)cc1` (stereo not drawn) [Compound 185] showed a DC50 above 15 nM. The compound `Cc1ncsc1-c1ccc(CNC(=O)[C@@H]2C[C@@H](O)CN2C(=O)[C@@H](NC(=O)C2(F)CC2)C(C)(C)C)c(OCCCCCCCC(=O)N2CCC(c3ccc(Nc4nc(N5CCC[C@@H](N6CCN(C)C6=O)C5)cnc4C(N)=O)cc3)CC2)c1` [Compound 186] came in with a DC50 above 15 nM. Next, `Cc1ncsc1-c1ccc(CNC(=O)[C@@H]2C[C@@H](O)CN2C(=O)[C@@H](NC(=O)C2(F)CC2)C(C)(C)C)c(OCCCCCC(=O)N2CCC(c3ccc(Nc4nc(N5CCC[C@@H](N6CCN(C)C6=O)C5)cnc4C(N)=O)cc3)CC2)c1` [Compound 187]: above 15 nM.

Values taken from US11479556B1, “Bifunctional compounds for degrading BTK via ubiquitin proteosome pathway” (NURIX THERAPEUTICS, INC., priority 2018, dated 2022).
